Data: patent publication US4599333A, “Hydrazinopyridazine compound, process for production thereof, and use thereof as medicament” (Teikoku Hormone Mfg. Co., Ltd., priority 1984, dated 1986)

Target: T1, β1-adrenoceptors (Rattus norvegicus, UniProt P18090)
T1 construct: Experiments were done using male Wistar rats; from tissue; host or cells: whole anesthetized male Wistar rat (in vivo; heart rate)
Test: β1-adrenoceptor blocking action (inhibition of increase in heart rate exerted by isoproterenol) and selectivity for β1-adrenoceptors
Assay type: in vivo, male Wistar rats
Conditions: blocking activity ratio from ID50 doses; Table 2
Procedure: (§1) Experiments were done using male Wistar rats weighing between 300 and 400 g, anesthetized with sodium pentobarbital (60 mg/kg i.p.). The blood pressure was directly measured by connecting a cannula inserted in the femoral artery to a pressure transducer and the heart rate was calculated from the pulse waves of the blood pressure tracings. Each value shown here was obtained from three animals. The test compounds were individually dissolved in physiological saline solution or a 0.01N aqueous solution of hydrochloric acid.
(§2) (1) Measurement of β-adrenoceptor blocking activity
The increased heart rate before injection of the test compound was represented by H1. Three minutes after i.v. injection of the test compound, isoproterenol (0.1 μg/kg i.v.) was again administered and then the change in heart rate was measured. The maximum increase in heart rate after injection of the test compound was designated as H2. From these values, the percent inhibition of the change in heart rate was calculated in accordance with the following equation.
(§3) By repeating the procedure mentioned above at various doses of the test compounds, dose-response curves were prepared.

T1 sequence (P18090 whole entry): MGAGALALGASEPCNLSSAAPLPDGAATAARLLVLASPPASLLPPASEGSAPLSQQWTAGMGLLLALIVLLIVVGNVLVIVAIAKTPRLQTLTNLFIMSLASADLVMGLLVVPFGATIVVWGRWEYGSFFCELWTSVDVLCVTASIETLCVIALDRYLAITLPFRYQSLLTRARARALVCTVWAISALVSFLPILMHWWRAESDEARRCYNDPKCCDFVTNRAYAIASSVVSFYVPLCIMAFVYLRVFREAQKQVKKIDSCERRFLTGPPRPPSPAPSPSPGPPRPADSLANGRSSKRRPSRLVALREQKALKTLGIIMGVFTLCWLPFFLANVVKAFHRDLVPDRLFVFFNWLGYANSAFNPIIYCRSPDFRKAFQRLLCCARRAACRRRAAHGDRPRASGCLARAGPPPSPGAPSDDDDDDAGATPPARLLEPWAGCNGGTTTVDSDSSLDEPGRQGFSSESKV

Compared with `Cc1ccccc1OCC(O)CNC(C)(C)COc1ccc(NN)nn1` (stereo not drawn) [C, 1-(2-methylphenoxy)-3-[1,1-dimethyl-2-(3-hydrazino-6-pyridazinyloxy)ethylamino]-2-propanol], `CC(C)(COc1ccc(NN)nn1)NCC(O)COc1ccccc1Cl` (stereo not drawn) [B, 1-(2-chlorophenoxy)-3-[1,1-dimethyl-2-(3-hydrazino-6-pyridazinyloxy)ethylamino]-2-propanol] is lower in “Selectivity for β1-adrenoceptors (β1/β2)” value: 30 for the first, 29 for the second.

First: CC(C)(COc1ccc(NN)nn1)NCC(O)COc1ccccc1C#N (stereo not drawn) [Compound I, 1-(2-cyanophenoxy)-3-[1,1-dimethyl-2-(3-hydrazino-6-pyridazinyloxy)ethylamino]-2-propanol]
Second: Cc1ccc(C#N)c(OCC(O)CNC(C)(C)COc2ccc(NN)nn2)c1 (stereo not drawn) [K, 1-(2-cyano-5-methylphenoxy)-3-[1,1-dimethyl-2-(3-hydrazino-6-pyridazinyloxy)ethylamino]-2-propanol]
The “Selectivity for β1-adrenoceptors (β1/β2)” value of the first is higher: 5 for the first, 2 for the second.

`CC(C)NCC(O)COc1ccc(CC(N)=O)cc1` (stereo not drawn) [Atenolol, reference compound] was tested, and the “Selectivity for β1-adrenoceptors (β1/β2)” value was 30.

`C#Cc1ccccc1OCC(O)CNC(C)(C)COc1ccc(NN)nn1` (stereo not drawn) [R, 1-(2-ethinylphenoxy)-3-[1,1-dimethyl-2-(3-hydrazino-6-pyridazinyloxy)ethylamino]-2-propanol] was tested, and the “Selectivity for β1-adrenoceptors (β1/β2)” value was over 5.

System: heart rate
Test: Heart rate increase produced by isoproterenol
Assay type: in vivo, male Wistar rats
Conditions: single i.v. injection 0.1 μg/kg, before test compound
Procedure: Experiments were done using male Wistar rats weighing between 300 and 400 g, anesthetized with sodium pentobarbital (60 mg/kg i.p.). The blood pressure was directly measured by connecting a cannula inserted in the femoral artery to a pressure transducer and the heart rate was calculated from the pulse waves of the blood pressure tracings. Each value shown here was obtained from three animals. The test compounds were individually dissolved in physiological saline solution or a 0.01N aqueous solution of hydrochloric acid. A single intravenous (i.v.) injection of isoproternol (0.1 μg/kg) produced an increase in heart rate by approximately 90 beats/min. The increased heart rate before injection of the test compound was represented by H1. Three minutes after i.v. injection of the test compound, isoproterenol (0.1 μg/kg i.v.) was again administered and then the change in heart rate was measured. The maximum increase in heart rate after injection of the test compound was designated as H2. From these values, the percent inhibition of the change in heart rate was calculated in accordance with the following equation.

`CC(C)NCC(O)c1ccc(O)c(O)c1` (stereo not drawn) [isoproternol, isoproterenol] was tested, and the “increase in heart rate” value was “approximately 90 beats/min”.

Target: T2, β2 (Rattus norvegicus, UniProt P10608)
T2 construct: Experiments were done using male Wistar rats; from tissue; host or cells: whole anesthetized male Wistar rat (in vivo; arterial blood pressure)
T2 sequence (P10608 whole entry): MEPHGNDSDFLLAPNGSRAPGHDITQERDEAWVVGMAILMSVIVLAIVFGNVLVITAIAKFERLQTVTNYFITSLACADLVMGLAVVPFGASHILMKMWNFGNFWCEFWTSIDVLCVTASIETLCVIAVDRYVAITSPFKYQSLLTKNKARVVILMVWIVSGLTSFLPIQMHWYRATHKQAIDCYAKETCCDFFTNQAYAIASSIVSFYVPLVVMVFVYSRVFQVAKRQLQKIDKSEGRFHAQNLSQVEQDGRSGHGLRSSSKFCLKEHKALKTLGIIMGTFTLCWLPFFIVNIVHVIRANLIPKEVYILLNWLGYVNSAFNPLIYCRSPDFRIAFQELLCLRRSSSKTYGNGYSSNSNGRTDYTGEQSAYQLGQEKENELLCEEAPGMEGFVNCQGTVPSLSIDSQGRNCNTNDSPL
Test: β2-adrenoceptor blocking action (inhibition of fall in blood pressure exerted by isoproterenol)
Assay type: in vivo, male Wistar rats
Conditions: iv, 50% inhibition of fall in blood pressure by isoproterenol 0.1 μg/kg i.v., Table 2, read-out: β-adrenoceptor blocking action ID50 β2
Procedure: as §1, §2, §3

First: Cc1ccccc1OCC(O)CNC(C)(C)COc1ccc(NN)nn1 (stereo not drawn) [C, 1-(2-methylphenoxy)-3-[1,1-dimethyl-2-(3-hydrazino-6-pyridazinyloxy)ethylamino]-2-propanol]
Second: CC(C)(COc1ccc(NN)nn1)NCC(O)COc1ccccc1Cl (stereo not drawn) [B, 1-(2-chlorophenoxy)-3-[1,1-dimethyl-2-(3-hydrazino-6-pyridazinyloxy)ethylamino]-2-propanol]
The ED50 of the first is 2-fold higher: 0.45 mg/kg for the first, 0.23 mg/kg for the second.

`CC(C)(COc1ccc(NN)nn1)NCC(O)COc1ccccc1C#N` (stereo not drawn) [Compound I, 1-(2-cyanophenoxy)-3-[1,1-dimethyl-2-(3-hydrazino-6-pyridazinyloxy)ethylamino]-2-propanol] and `Cc1ccc(C#N)c(OCC(O)CNC(C)(C)COc2ccc(NN)nn2)c1` (stereo not drawn) [K, 1-(2-cyano-5-methylphenoxy)-3-[1,1-dimethyl-2-(3-hydrazino-6-pyridazinyloxy)ethylamino]-2-propanol] are the same in ED50: 0.1 mg/kg for the first, 0.1 mg/kg for the second.

`CC(C)NCC(O)COc1ccc(CC(N)=O)cc1` (stereo not drawn) [Atenolol, reference compound] was tested, and the ED50 was 1.5 mg/kg.
